In patent US20070258912A1, “Use of Fluorescent Whitening Agents as Antimicrobials” (priority 2004, published 2007):
Where two headings read alike, the source gives them in different places.

Legend:
Format in all cases: cell-based
[1] = system: Corynebacterium minutissimum; test: MIC in the agar incorporation test; conditions: read-out: MIC Corynebacterium minutissimum
Propionibacterium acnes = test: MIC in the agar incorporation test; conditions: Cutibacterium acnes, read-out: MIC Propionibacterium acnes
Method: (§1) Determination of Minimum Inhibitory Concentration (MIC Values) in the Agar Incorporation Test
(§2) 1% stock solutions of the substances are prepared in an appropriate solvent and diluted in serial dilutions 1:2 (to yield end concentrations in the agar of 500-1.9 ppm). 0.3 ml of each dilution step is mixed with 15 ml of nutrient medium while the latter is still liquid. After the nutrient medium has solidified, 10 μl of each test strain in 0.85% NaCl solution are spotted onto the agar medium.
(§3) The plates are incubated at 37° C. for 24 hours and then the highest dilution (lowest concentration) of the test substance at which growth is no longer observable is determined.
(§4) Test Organisms: Staphylococcus aureus ATCC 6583 Staphylococcus epidermidis ATCC 12228 Corynebacterium xerosis ATCC 373 Propionibacterium acnes ATCC Escherichia coli ATCC 10536 Salmonella choleraesuis ATCC Klebsiella pneumoniae ATCC *Candida albicans ATCC 10231
(§5) *Aspergillus niger ATCC 6275

Staphylococcus epidermis = test: MIC in the agar incorporation test
Method: as §1, §2, §3, §4, §5

Corynebacterium xerosis [2] = test: MIC in the agar incorporation test
Method: as §1, §2, §3, §4, §5

Prevotella nigrescens = test: MIC against oral microorganisms via broth dilution
Method: (§6) Determination of the Minimum Inhibition Concentration (MIC Value) Against Different Oral Microorganisms Via Broth Dilution
(§7) 1500 ppm stock solutions of the substances are prepared in ethanol and pipetted into the growth medium to yield concentrations between 0.94 and 15 ppm. Bacteria are taken from blood agar plates with cotton swabs and adjusted in the appropriate growth medium to yield an optical density corresponding to McFarland 0.5. This suspension is directly used in the case of F. nucleatum and P. nigrescens. For the other strains, the suspension is diluted 1:20. 0.1 ml of these bacterial suspensions are added to 2 ml of the substance solutions. After the incubation time, the tubes are assessed for growth (turbidity).
(§8) Test Organisms: *Actinobacillus actinomycetemcomitans ATCC 43718 *Stretococcus gordonii ATCC 10558 *Streptococcus mutans ATCC 33402 Actinomyces viscosus ATCC 43146 Fusobacterium nucleatum subsp. polymorphum ATCC 10953 Porphyromonas gingivalis ATCC 33277
(§9) Prevotella nigrescens ATCC 33563

Streptococcus mutans = test: MIC against oral microorganisms via broth dilution
Method: as §6, §7, §8, §9

Actinomyces viscosus [3] = test: MIC against oral microorganisms via broth dilution
Method: as §6, §7, §8, §9

Porphyromnas gingivalis = test: MIC against oral microorganisms via broth dilution; conditions: read-out: MIC Porphyromnas gingivalis
Method: as §6, §7, §8, §9

[4] = system: Fusobacterium nucleatum subsp. polymorphum; test: MIC against oral microorganisms via broth dilution
Method: as §6, §7, §8, §9

Streptococcus gordonii = test: MIC against oral microorganisms via broth dilution
Method: as §6, §7, §8, §9

Staphylococcus aureus [5] = test: MIC in the agar incorporation test
Method: as §1, §2, §3, §4, §5

[6] = system: Actinobacillus actinomycetemcomitans; test: MIC against oral microorganisms via broth dilution; conditions: Aggregatibacter actinomycetemcomitans, ATCC43718; broth dilution 0.94-15 ppm, 24 h aerobically with 10% CO2, ATCC 43718
Method: as §6, §7, §8, §9

Salmonella choleraesuis = test: MIC in the agar incorporation test; conditions: Salmonella enterica, Mueller Hinton agar, 24 hours at 37° C.
Method: as §1, §2, §3, §4, §5

Klebsiella pneumoniae = test: MIC in the agar incorporation test; conditions: Mueller Hinton agar, 24 hours at 37° C.
Method: as §1, §2, §3, §4, §5

Actinomyces viscosus [7] = test: Microbicidal activity (suspension test, plate count); conditions: 120 ppm, ATCC 43146
Method: (§10) Determination of Microbicidal Activity
(§11) 1 g stock solution with an appropriate concentration of test products are mixed with 8 g water and then inoculated with 1 ml of the selected test organisms. After a given contact period, aliquots are taken, inactivated and diluted. The number of surviving bacteria per ml incubation assay is determined by plate count. Proper inactivation by the inactivating medium used was checked each time.
(§12) Diluent: tryptone water for microorganisms
(§13) • (0.1% tryptone (Oxoid), 0.85% NaCl, deion. water) • deion. water for test substances • inactivating medium for detection of surviving microorganisms Growth medium: casein soybean peptone agar Inactivating Medium: tryptic soy broth special • (10% w/w Tween 80, 3% w/w Lecithine, 0.1% w/w L-Histidine, • 0.055% w/w Sodium thiosulfate) Test organisms: Staphylococcus aureus ATCC 6538 • Escherichia coli ATCC 10536 • Actinomyces viscosus ATCC 43146 • Corynebacterium xerosis ATCC 373 Test concentration: 120 ppm and 1200 ppm Contact times: 5 and 30 minutes at 22° C.
(§14) Incubation time: 24 h at 37° C.

Staphylococcus aureus [8] = test: as above; conditions: 120 ppm, ATCC 6538
Method: as §10, §11, §12, §13, §14

Corynebacterium xerosis [9] = test: as above; conditions: 120 ppm, ATCC 373
Method: as §10, §11, §12, §13, §14

Escherichia coli [10] = test: as above; conditions: 120 ppm, ATCC 10536
Method: as §10, §11, §12, §13, §14

Escherichia coli [11] = test: MIC in the agar incorporation test; conditions: ATCC10536, agar incorporation, Mueller Hinton agar, 24 hours at 37° C., ATCC 10536, read-out: MIC Escherichia coli
Method: as §1, §2, §3, §4, §5

[12] = ATCC12228, 24 h, read-out: MIC Staphylococcus epidermis
[13] = ATCC373, 24 h, read-out: MIC Corynebacterium xerosis
[14] = agar incorporation, Mueller Hinton agar, 24 hours at 37° C.
[15] = ATCC33563, broth dilution 0.94-15 ppm, Columbia bouillon, 7-10 days at 37° C. anaerobically, ATCC 33563, read-out: MIC Prevotella nigrescens
[16] = ATCC33402, broth dilution 0.94-15 ppm, 24 h aerobically with 10% CO2, ATCC 33402, read-out: MIC Streptococcus mutans
[17] = ATCC43146, broth dilution 0.94-15 ppm, 7-10 days at 37° C. anaerobically, ATCC 43146, read-out: MIC Actinomyces viscosus
[18] = broth dilution 0.94-15 ppm, Columbia bouillon, 7-10 days at 37° C. anaerobically, ATCC 33277
[19] = ATCC10953, broth dilution 0.94-15 ppm, 7-10 days at 37° C. anaerobically, ATCC 10953, read-out: MIC Fusobacterium nucleatum subsp. polymorphum
[20] = ATCC10558, broth dilution 0.94-15 ppm, 24 h aerobically with 10% CO2, ATCC 10558, read-out: MIC Streptococcus gordonii
[21] = ATCC6583, agar incorporation, Mueller Hinton agar, 24 hours at 37° C., ATCC 6583, read-out: MIC Staphylococcus aureus
[22] = ATCC12228, agar incorporation, Mueller Hinton agar, 24 hours at 37° C., ATCC 12228, read-out: MIC Staphylococcus epidermis
[23] = ATCC373, agar incorporation, Mueller Hinton agar, 24 hours at 37° C., ATCC 373, read-out: MIC Corynebacterium xerosis

SMILES | MIC ([1]; 24 h) [µg/mL] | MIC (Propionibacterium acnes; 24 h) [µg/mL] | MIC (Staphylococcus epidermis; [12]) [µg/mL] | MIC (Corynebacterium xerosis [2]; [13]) [µg/mL] | MIC [1, 14] [µg/mL] | MIC (Prevotella nigrescens; [15]) [µg/mL] | MIC (Streptococcus mutans; [16]) [µg/mL] | MIC (Actinomyces viscosus [3]; [17]) [µg/mL] | MIC (Porphyromnas gingivalis; [18]) [µg/mL] | MIC [4, 19] [µg/mL] | MIC (Streptococcus gordonii; [20]) [µg/mL] | MIC (Propionibacterium acnes; [14]) [µg/mL] | MIC (Staphylococcus aureus [5]; [21]) [µg/mL] | MIC (Staphylococcus epidermis; [22]) [µg/mL] | MIC (Corynebacterium xerosis [2]; [23]) [µg/mL] | MIC (Salmonella choleraesuis) [µg/mL] | MIC (Klebsiella pneumoniae) [µg/mL] | also measured
C[n+]1ccccc1COc1ccccc1/C=C/c1ccc(-c2ccc(/C=C/c3ccccc3OCc3cccc[n+]3C)cc2)cc1 [formula 32] | 200 | 100 | 50 | 100 | – | – | – | – | – | – | – | – | – | – | – | – | – | –
COc1cccc(/C=C/c2ccc(-c3ccc(/C=C/c4cccc(OC)c4OCCCN(C)C)cc3)cc2)c1OCCCN(C)C [formula 31] | 15.6 | 7.8 | 125 | 125 | – | – | – | – | – | – | – | – | – | – | – | – | – | MIC (Prevotella nigrescens; ATCC33563, read-out: MIC Prevotella nigrescens): 3.75 µg/mL; MIC (Streptococcus mutans; ATCC33402, 24 h, read-out: MIC Streptococcus mutans): 7.5 µg/mL; MIC (Actinomyces viscosus [3]; ATCC43146, read-out: MIC Actinomyces viscosus): 3.8 µg/mL; MIC (Porphyromnas gingivalis): 1.9 µg/mL; MIC ([4]; ATCC10953, read-out: MIC Fusobacterium nucleatum subsp. polymorphum): 15 µg/mL; MIC (Streptococcus gordonii; ATCC10558, 24 h, read-out: MIC Streptococcus gordonii): 11.2 µg/mL; MIC (Staphylococcus aureus [5]; ATCC6583, 24 h, read-out: MIC Staphylococcus aureus): 62.5 µg/mL
Cc1ccc(/C=C/c2ccc(/C=C/c3ccc(C)c(OCCCN(C)C)c3)cc2)cc1OCCCN(C)C [formula 30] | – | – | – | – | 3.1 | 3.8 | 7.5 | 3.8 | 3.8 | 3.8 | 15 | 6.3 | 12.5 | 12.5 | 3.1 | 200 | 25 | MIC [6]: 15 µg/mL
CN(C)CCSc1ccccc1/C=C/c1ccc(/C=C/c2ccccc2SCCN(C)C)cc1 [formula 23] | – | – | – | – | 3.9 | 7.5 | 7.5 | 3.75 | 3.75 | 7.5 | 7.5 | 3.9 | 7.8 | 15.6 | 7.8 | 125 | 31.3 | Microbicidal activity Actinomyces viscosus 120 ppm/5 min (Actinomyces viscosus [7]; 5 min contact at 22° C.): 2 log reductions; Microbicidal activity Actinomyces viscosus 120 ppm/30 min (Actinomyces viscosus [7]; 30 min contact at 22° C.): 4 log reductions; Microbicidal activity Staphylococcus aureus 120 ppm/5 min (Staphylococcus aureus [8]; 5 min contact at 22° C.): 2 log reduction; Microbicidal activity Staphylococcus aureus 120 ppm/30 min (Staphylococcus aureus [8]; 30 min contact at 22° C.): 4 log reduction; Microbicidal activity Corynebacterium xerosis 120 ppm/5 min (Corynebacterium xerosis [9]; 5 min contact at 22° C.): 5 log reductions; Microbicidal activity Corynebacterium xerosis 120 ppm/30 min (Corynebacterium xerosis [9]; 30 min contact at 22° C.): 5 log reductions; Microbicidal activity Escherichia coli 120 ppm/5 min (Escherichia coli [10]; 5 min contact at 22° C.): 3.3 log reduction; Microbicidal activity Escherichia coli 120 ppm/30 min (Escherichia coli [10]; 30 min contact at 22° C.): 5 log reduction; MIC (Escherichia coli [11]): 125 µg/mL
